Measurements reported in patent publication US7943793B2, “Optically active organic acidate-bridged dinuclear platinum(II) complex” (Osaka University, priority 2007, dated 2011).

Legend:
Type in all cases: cell-based
colon cancer cell HT-29 = experiment: Cancer growth inhibitory activity, colon cancer cell HT-29; details: for Cancer growth inhibitory activity (average log GI50): colon cancer cell HT-29; for cancer growth inhibitory activity relative to oxaliplatin: colon cancer cells, stronger than oxaliplatin
lung cancer cell DMS273 = experiment: Cancer growth inhibitory activity, lung cancer cell DMS273; details: for Cancer growth inhibitory activity (average log GI50): lung cancer cell DMS273; for cancer growth inhibitory activity relative to oxaliplatin: lung cancer cells, higher than oxaliplatin
[1] = system: gastric cancer cell MKN-7; experiment: Cancer growth inhibitory activity, gastric cancer cell MKN-7; details: for Cancer growth inhibitory activity (average log GI50): gastric cancer cell MKN-7
[2] = system: renal cancer cell RXF631L; experiment: Cancer growth inhibitory activity, renal cancer cell RXF631L; details: for Cancer growth inhibitory activity (average log GI50): renal cancer cell RXF631L
39 kinds of cancer cells = experiment: In vitro cancer growth inhibitory activity, sulforhodamine B, panel of 39 cancer cell lines; details: average over 39 kinds of cancer cells, 2 days culture with sample
Method: The in vitro cancer growth inhibitory activity was assessed according to the method described in Jpn J Cancer Chemother, 24, 129 (1997) and Cancer Chemothr. Pharmacol., 52 Suppl 1, S74-79 (2003). Namely, a total of 39 different kinds of cancer cells at logarithmic growth phase were separately seeded into wells of 96 well plates, and incubated at 37° C. for 1 day. The cancer cells used were 5 kinds of breast cancer cells (HBC-4, BSY-1, HBC-5, MCF-7, MDA-MB-231), 6 kinds of glioma cancer cells (U251, SF-268, SF-295, SF-539, SNB-75, SNB-78), 5 kinds of colon cancer cells (HCC2998, KM-12, HT-29, HCT-15, HCT-116), 7 kinds of lung cancer cells (NCI-H23, NCL-H226, NCL-H522, NCL-H460, A549, DMS273, DMS114), 1 kind of melanoma cell (LOX-IMVI), 5 kinds of ovarian cancer cells (OVCAR-3, OVCAR-4, OVCAR-5, OVCAR-8, SK-OV-3), 2 kinds of renal cancer cells (RXF-631L, ACHN), 6 kinds of gastric cancer cells (St-4, MKN1, MKN7, MKN28, MKN45, MKN74), and 2 kinds of prostate cancer cells (DU-145, PC-3). Each sample solution was added to the wells on the following day, and culture was continued at 37° C. for another 2 days. Then, the degree of cell growth was determined by the colorimetric measurement using sulforhodamine B. The cancer growth inhibitory activity was assessed based on the average log GI50 (GI50 indicates the concentration required to inhibit 50% of cell growth) against 39 kinds of cancer cells.

Molecule	Cancer growth inhibitory activity (average log GI50) (colon cancer cell HT-29)	cancer growth inhibitory activity relative to oxaliplatin (colon cancer cell HT-29)	Cancer growth inhibitory activity (average log GI50) (lung cancer cell DMS273)	cancer growth inhibitory activity relative to oxaliplatin (lung cancer cell DMS273)	Cancer growth inhibitory activity (average log GI50) [1]	cancer growth inhibitory activity relative to oxaliplatin ([1]; gastric cancer cells, stronger than oxaliplatin)	Cancer growth inhibitory activity (average log GI50) [2]	cancer growth inhibitory activity relative to oxaliplatin ([2]; renal cancer cells, stronger than oxaliplatin)	Cancer growth inhibitory activity (average log GI50) (39 kinds of cancer cells)
N[C@@H]1CCCC[C@H]1N.N[C@@H]1CCCC[C@H]1N.O.O.O.O.O=C([O-])[C@@H](O)[C@H](O)C(=O)[O-].O=[N+]([O-])[O-].[Pt+2].[Pt+2] (relative stereo) [[{Pt(R,R-dach)}2(μ-D-tartH)]NO3•4H2O, D-tartrate-bridged dinuclear 1R,2R-1,2-trans-cyclohexanediamine platinum(II) complex nitrate]	−5.96	about 10 times	−7.46	about 20 times	−6.02	about 10 times	−6.03	about 100 times	
L-tartrate-bridged dinuclear 1R,2R-1,2-trans-cyclohexanediamine platinum(II) complex nitrate [[{Pt(R,R-dach)}2(μ-L-tartH)]NO3•4H2O]	−7.00	about 100 times	−7.31	about 20 times	−4.98		−4.92		−5.99
O=C1[O][Pt-2]2([NH2+]C3CCCC[C@H]3[NH2+]2)[O]C1=O (stereo partly drawn) [Oxaliplatin, oxalato(1R,2R-1,2-cyclohexanediamine)platinum(II), reference compound]	−4.91		−6.06		−4.68		−4.13		−5.03
L-tartrate-bridged dinuclear 1S,2S-1,2-trans-cyclohexanediamine platinum(II) complex nitrate [[{Pt(S,S-dach)}2(μ-L-tartH)]NO3•4H2O]									−5.36
